Test results published in patent publication US8470845B2, “Analgesic and methods of treating pain” (Toray Industries, Inc., priority 2004, dated 2013).

What was measured:
[1] = test system: female Sprague-Dayley rats; assay: Activity to relieve cystalgia caused by hyperextension of bladder, myoelectric activity of external oblique abdominal muscle as index; assay type: in vivo, rat; conditions: iv; for Rate of Inhibition of Myoelectric Activity (Number of Spikes) of External Oblique Abdominal Muscle (vs. before administration, %): anesthetized rats, mean ± standard error
Method: The activity of Compound 10f to relieve cystalgia was evaluated using the myoelectric activity of external oblique abdominal muscle in hyperextension of bladder of anesthetized rats as an index of the cystalgia. In the experiments, 14 to 15-week old female Sprague-Dayley rats (CLEA Japan, Inc.) weighing 300 to 360 g were used.
Under halothane (2.5-4%) anesthesia, a polyethylene catheter (PE-50) for cystometry was inserted into the bladder transurethrally. Further, a polyethylene catheter (PE-100) for filling physiological saline was inserted into the bladder from the apex of bladder dome. […] A catheter for drug administration was indwelled in the femoral vein. The skin in the lateral ventral part was incised and a bipolar electrode for electromyographic measurement was inserted into the external oblique abdominal muscle and indwelled therein. A reservoir preliminarily filled with physiological saline was connected to the catheter indwelled in the bladder and held at a prescribed height to extend the bladder. The extension stimulus was continued for 20 seconds. In cases where the stimulation is repeatedly given, the interval between stimulation was 3 minutes. A bipolar electrode (needle electrode for electroencephalography, NIHON KOHDEN) was connected to an electromyograph amplifier (EMG100C, Biopac Systems), and a high cut filter (5 kHz) and low cut filter (100 Hz) were applied. Thereafter, the signals were taken into an AD converter (MP-150WSW, Biopac Systems) and into a computer at 1 kHz, and the myoelectric activity was recorded using the special software (AcqKnowledge 3.8.1, Biopac Systems). The intravesical pressure was measured using a pressure transducer (AP641G, NIHON KOHDEN) and a general purpose amplifier (DA100C, Biopac Systems). The halothane level was adjusted such that a stable myoelectric activity was obtained by extension at a pressure of 50 cmH2O, and then the drug was intravenously administered. Thereafter, hyperextension of bladder was repeated for at least 20 minutes.
The drug was dissolved in aqueous 5% xylitol-0.02% citric acid solution, and the administration volume was 0.5 mL/kg. The mean of the number of spikes during the twice hyperextension of bladder immediately before the drug administration was defined as the value before drug administration. Taking the value before the drug administration as 100%, the change in the number of spikes after administration of the drug was normalized. The mean of the change in the number of spikes by the consecutive three times hyperextension carried out immediately before or after 15-minutes time point from the drug administration was calculated, and the drug effect was analyzed by Williams test.

male ddY mouse [2] = assay: Analgesic activity test by mouse acetic acid writhing method; assay type: in vivo; conditions: subcutaneous, 15 minutes before i.p. 0.6% acetic acid; dosage to halve the number of writhing response
Method: To each male ddY mouse, each test compound or the vehicle was subcutaneously administered in an administration volume of 0.1 mL/10 g body weight. Fifteen minutes later, 0.1 mL/10 g body weight of aqueous 0.6% (v/v) acetic acid solution was intraperitoneally administered. From 10 minutes after the administration of the acetic acid solution, the number of writhing response (i.e., the behavior to bend the body backward and/or twist the body) during 10 minutes was counted, and the analgesic activity was evaluated based on the number of writhing response. […] 10% Aqueous dimethylsulfoxide (DMSO) was used as a vehicle for test compounds 1, 2, 3, 4, 5, 6, 7, 8, 9, 10, 11, 12, 13, 14, 15, 16, 17, 18, 19, 20, 21 and 22. 0.1% Citric acid/aqueous 5% xylitol was used as a vehicle for test compounds 10f.

male ddY mouse [3] = conditions: literature, Pain. Vol 50, 223-229 (1992); cited from earlier work

Row | Compound | Rate of Inhibition of Myoelectric Activity (Number of Spikes) of External Oblique Abdominal Muscle (vs. before administration, %) ([1]; 0.003 mg/kg) [%] | Rate of Inhibition of Myoelectric Activity (Number of Spikes) of External Oblique Abdominal Muscle (vs. before administration, %) ([1]; 0.01 mg/kg) [%] | Rate of Inhibition of Myoelectric Activity (Number of Spikes) of External Oblique Abdominal Muscle (vs. before administration, %) ([1]; 0.03 mg/kg) [%] | inhibition of the myoelectric activity (in words) ([1]; 0.003-0.03 mg/kg) | minimum effective dose ([1]; inhibition of myoelectric activity) [mg/kg] | ED50 (male ddY mouse [2]) [mg/kg] | effect on pain in PGF2α-induced allodynia model (in words) (male ddY mouse [3])
1 | O=C1c2ccccc2C(=O)N1[C@@H]1CC[C@@]2(O)[C@H]3Cc4ccc(O)c5c4[C@@]2(CCN3CC2CC2)[C@H]1O5 [Compound 10f, N-(17-cyclopropylmethyl-4,5α-epoxy-3,14-dihydroxy-morphinan-6β-yl)-phthalimide] | 5.9 ± 11.5 | 42.4 ± 21.1 | 64.3 ± 17.2 | dose-dependently and significantly inhibited | 0.01 | 0.037 | 
2 | CN1CC[C@]23c4c5ccc(O)c4O[C@H]2[C@@H](O)C=C[C@H]3[C@H]1C5 [morphine] |  |  |  |  |  |  | ineffective
